From patent publication US9932339B2, “Helquats with heteroaromatic substituents, preparation thereof, and use thereof as G-quadruplex stabilizers” (USTAV ORGANICKE CHEMIE A BIOCHEMIE AV CR, V.V.I., priority 2014, dated 2018)
pIC50: −log10 of the molar value. Read-outs that look alike come from different tables or passages of the source.

Tests used:
[1] = system: G-quadruplex in promoter region of the c-myc gene (NHE III1 segment); assay: Dual luciferase analysis with plasmid pGL4.10-myc (luc2) in HGC-27 cells; type: cell-based, human; conditions: for inhibition at 50 µM / activity at 50 µM: Homo sapiens; for inhibition at 50 µM: HGC-27, text summary of tab. 5 (50 μmol·l^−1), read-out: inhibition of expression of firefly luciferase as compared to control; for activity at 50 µM: helquat 50 μmol · l^−1, HGC-27, firefly normalized to Renilla, 24 hours after transfection, read-out: luciferase expression relative to control (control = 100%); for Quantification of expression relative to control (%): control = 100%
Description: A dual luciferase analysis was used to determine the degree of stabilization of G-quadruplex in a promoter region of the c-myc gene on cellular level. Stabilization of G-quadruplex is expressed as the ratio of expression of two luciferases (firefly and Renilla) from the co-transfected vectors pGL4.10-myc (luc2) and pRL-TK (Renilla) into a cell line HGC-27 expressing c-myc protein. Expression of the reporter gene (firefly luciferase) from pGL4.10-myc vector is controlled by the c-myc regulatory region of a length of 860 by (in the range from −306 to +554). The inserted sequence contains NHE III1 segment which forms G-quadruplex [Yang, D. et al. (2010) Future Med Chem., 2, 619], and is responsible for as much as 90% of the transcriptional activity of the c-myc gene.
Level of expression of firefly luciferase reporter gene corresponds to promoter activity of c-myc and thus to the degree of stabilization of the G-quadruplex. The signal is normalized to Renilla luciferase expression from pRL-TK vector under the control of a constitutive viral thymidine kinase (HSV-TK) promoter. The amount of Renilla luciferase expression serves as an internal control for normalization of firefly signal on transfection efficiency in the sample. Plasmids pGL4.10-myc (luc2) and pRL-TK were propagated in Escherichia coli (DH5α strain) and purified using the Qiagen Plasmid Mini and Midi kits. Cells were cultured under standard conditions and in exponential growth phase were seeded into a white 96-well microtiter plates. Transfection was carried out using a transfection reagent X-tremeGENE HP DNA in OptiMEM media for two hours. The ratio of reporter and control vector was 1:1 and the ratio of transfection reagent to the total amount of DNA was 1:1. Two hours after transfection helquats were added in a concentration of 50 μmol·l^−1. Quantity of firefly and Renilla luciferases in the samples was determined 24 hours after transfection. Dual luciferase analysis was performed using a commercially available kit (Promega, cat. No. E1960) according to manufacturer's instructions. Luminescence was measured using a luminometer EnSpire Alpha Plate Reader. The data obtained were normalized to the Renilla luciferase signal and then the values were related to control.

HUVEC = assay: XTT cytotoxicity/proliferation assay, HUVEC; type: cell-based, human; conditions: Homo sapiens, HUVEC
Procedure: To assess the antiproliferative effects of the tested substances in vitro, tumor cell line CCRF-CEM derived from acute lymphoblastic leukemia and normal (healthy) HUVEC endothelial cells from umbilical vein were used. Both of these cell lines were cultured under optimal conditions for their growth in the appropriate medium in plastic bottles or plastic Petri dishes of various sizes (TPP, BD Biosciences) at 37° C., 5% CO2 and 95% humidity. HUVEC cells were purchased from BD Biosciences. CCRF-CEM cell line was obtained from ATCC/LGC Standards (American Type Cell Collection). Normal human endothelial cells from the umbilical vein are adherent cells, which were grown in plastic Petri dishes coated with collagen I. The culture medium (E-STIMTM; BD Biosciences, cat. […] Then, 5 ml of complete culture media E-STIM™ was added and the cells were centrifuged (180×g, 7 minutes), resuspended and transferred in a desired amount in a new Petri dish with fresh medium. In the experiments cells between passages 3 and 8 (after thawing) were used. Population doubling time of HUVEC cells under the used culture conditions is 38 hours. For testing of the sensitivity of cell lines to studied helquats XTT cytotoxicity/proliferation assay for determination of cell viability was used. This method is based on the ability of metabolically active cells to reduce the yellow tetrazolium salt XTT to orange formazan. The rate of conversion is measured as the increase in absorbance at 492 nm and is proportional to the enzymatic activity of mitochondrial dehydrogenases and thus the number of metabolically active (viable) cells. […] Thus it reflects the effectiveness of the test substance towards the tested cell line. Cells in exponential growth phase were plated into 96-well microtiter plate at a concentration of 3000 cells per well. Each well contained 90 μl of cell suspension. The following day, 10 μl of 10× concentrated test substances was added. […] In addition to the part of the plate containing the mentioned dilutions of test compounds there were always two control columns present, first column with medium alone (i.e. blank) and the second column with the cells in medium without test compounds (control). Into the blank and control wells the same volume of solvent (water) as the volume of the substances was added. After 72 hours of treatment with substances the measurement of viability was performed according to the manufacturer instructions. Briefly, into each well of a 96-well microtiter plate 50 μl of the prepared working solution of XTT (detection reagent) was added and then the microtiter plate was returned to the CO2 incubator. After 2 hours, the absorbance of each well at 492 nm (reference wavelength 690 nm) was measured using a multifunctional microplate reader (Tecan Genios, Austria).

CCRF-CEM = assay: XTT cytotoxicity/proliferation assay, CCRF-CEM; type: cell-based; conditions: Homo sapiens, CCRF-CEM
Procedure: To assess the antiproliferative effects of the tested substances in vitro, tumor cell line CCRF-CEM derived from acute lymphoblastic leukemia and normal (healthy) HUVEC endothelial cells from umbilical vein were used. Both of these cell lines were cultured under optimal conditions for their growth in the appropriate medium in plastic bottles or plastic Petri dishes of various sizes (TPP, BD Biosciences) at 37° C., 5% CO2 and 95% humidity. HUVEC cells were purchased from BD Biosciences. CCRF-CEM cell line was obtained from ATCC/LGC Standards (American Type Cell Collection).
Suspension cell line CCRF-CEM is a continuous in vitro culture of acute lymphoblastic leukemia. Cell line CCRF-CEM was grown in RPMI 1640 medium (Sigma-Aldrich, cat. No. R8758) supplemented with 2 mmol·l^−1 glutamine (Invitrogen, cat. No. 35050-038), 10% fetal bovine serum (FBS; Sigma-Aldrich, cat. No. F9665), 100 IU/ml penicillin, 100 μg/ml streptomycin (Sigma-Aldrich, cat. No. P0781). Passaging was carried out 2-3 times a week. Population doubling time of CCRF-CEM cells under the used culture conditions is 20 hours.
For testing of the sensitivity of cell lines to studied helquats XTT cytotoxicity/proliferation assay for determination of cell viability was used. This method is based on the ability of metabolically active cells to reduce the yellow tetrazolium salt XTT to orange formazan. The rate of conversion is measured as the increase in absorbance at 492 nm and is proportional to the enzymatic activity of mitochondrial dehydrogenases and thus the number of metabolically active (viable) cells. The output is the IC50 value corresponding to the concentration of the test substance that causes a decrease in the number of viable cells by half (i.e. 50% slowdown of cell division) relative to the control, untreated population. Thus it reflects the effectiveness of the test substance towards the tested cell line.
Cells in exponential growth phase were plated into 96-well microtiter plate at a concentration of 3000 cells per well. Each well contained 90 μl of cell suspension. The following day, 10 μl of 10× concentrated test substances was added. Effect of helquats has been studied in the concentration range 1-100 μmol·l^−1 (or 1, 2.5, 5, 7.5, 10; 15; 25; 50 and 100 μmol·l^−1). In addition to the part of the plate containing the mentioned dilutions of test compounds there were always two control columns present, first column with medium alone (i.e. blank) and the second column with the cells in medium without test compounds (control). Into the blank and control wells the same volume of solvent (water) as the volume of the substances was added. After 72 hours of treatment with substances the measurement of viability was performed according to the manufacturer instructions. Briefly, into each well of a 96-well microtiter plate 50 μl of the prepared working solution of XTT (detection reagent) was added and then the microtiter plate was returned to the CO2 incubator. After 2 hours, the absorbance of each well at 492 nm (reference wavelength 690 nm) was measured using a multifunctional microplate reader (Tecan Genios, Austria).
The results of determination of the viability of cancer and normal cells after treatment with different concentrations of test substances are summarized in Table 9. […] Each concentration of a helquat was tested in triplicates within one IC50 value determination. Each of these IC50 value determinations was repeated in at least three independent experiments. Values above 100 μmol·l^−1 were obtained by extrapolation of data measured in the concentration range 0-100 μmol·l^−1 of helquats.

[2] = 72 hours of treatment, values above 100 μmol·l^−1 obtained by extrapolation, read-out: IC50 HUVEC
[3] = 72 hours, summary of table 9, read-out: concentrations non-toxic towards HUVEC cells
[4] = 72 hours of treatment, read-out: IC50 CCRF CEM
[5] = 72 hours, summary of table 9, read-out: concentrations toxic towards CCRF-CEM cells

C(=C\c1c[nH]c2c1ccc1ccccc12)/c1cc2ccccc2[n+]2c1-c1c(ccc3c1-c1cccc[n+]1CCC3)CCC2 [MSC-C13-16, 19-((E)-2-(1H-benzo[g]indol-3-yl)vinyl)-6,7,8,11,12,13-hexahydropyrido[1′″,2′″:1″,2″]azepino[4″,3″:5′,6′]benzo[1′,2′:3,4]azepino[1,2-a]quinoline-5,14-diium trifluoromethanesulfonate]
inhibition at 50 µM [1]: > 10%
activity at 50 µM [1]: 85%
pIC50 (HUVEC; [2]): ≤ 4.00
pIC50 (HUVEC; [3]): < 4.00
pIC50 (CCRF-CEM; [4]): ≥ 5.00
pIC50 (CCRF-CEM; [5]): > 4.60

Cn1c(/C=C/c2cc3ccccc3[n+]3c2-c2c(ccc4c2-c2cccc[n+]2CCC4)CCC3)cc2ccccc21 [MSC-C10-10, 19-((E)-2-(1-methyl-1H-indol-2-yl)vinyl)-6,7,8,11,12,13-hexahydropyrido[1′″,2′″:1″,2″]azepino[4″,3″:5′,6′]benzo[1′,2′:3,4]azepino[1,2-a]quinoline-5,14-diium trifluoromethanesulfonate]
inhibition at 50 µM [1]: > 10%
activity at 50 µM [1]: 85%
pIC50 (HUVEC; [2]): ≤ 4.00
pIC50 (HUVEC; [3]): < 4.00
pIC50 (CCRF-CEM; [4]): 4.60 to 4.96
pIC50 (CCRF-CEM; [5]): > 4.60

Cc1c(C)c2c(c3c1CC[n+]1ccc4ccccc4c1-3)-c1cccc(/C=C/c3ccc(-c4ccc(-c5cccs5)s4)s3)[n+]1CC2.O=S(=O)([O-])C(F)(F)F.O=S(=O)([O-])C(F)(F)F [VDJA-C13-6, (E)-11-(2-([2,2′;5′,2″-terthiophen]-5-yl)vinyl)-6,7-dimethyl-4,5,8,9-tetrahydroisoquinolino[1,2-a]pyrido[1,2-k][2,9]phenanthroline-3,10-diium trifluoromethanesulfonate]
Quantification of expression relative to control (%) ([1]; 10 μmol · l^−1): 59.0 ± 17.9%
Quantification of expression relative to control (%) ([1]; 50 μmol · l^−1): 27.1 ± 0.8%
Quantification of expression relative to control (%) ([1]; 150 μmol · l^−1): 15.3 ± 2.9%
activity at 50 µM [1]: 27%
pIC50 (HUVEC; [2]): ≤ 4.29
pIC50 (CCRF-CEM; [4]): 4.60 to 4.96

C(=C\c1cc2ccccc2[n+]2c1-c1c(ccc3c1-c1cccc[n+]1CCC3)CCC2)/c1ccc2[nH]ccc2c1 [MSC-C9-10, 19-((E)-2-(1H-indol-5-yl)vinyl)-6,7,8,11,12,13-hexahydropyrido[1′″,2′″:1″,2″]azepino[4″,3″:5′,6′]benzo[1′,2′:3,4]azepino[1,2-a]quinoline-5,14-diium trifluoromethanesulfonate]
inhibition at 50 µM [1]: > 40%
activity at 50 µM [1]: 56%
pIC50 (HUVEC; [2]): ≤ 4.00
pIC50 (HUVEC; [3]): < 4.00
pIC50 (CCRF-CEM; [4]): ≥ 5.00
pIC50 (CCRF-CEM; [5]): > 4.60
